{
  "source": "paper PMC3634901",
  "about": "(Bioorganic & medicinal chemistry letters, 2013)",
  "key": {"[1]": {"tested_on": "TNF-induced NFκB activation", "assay_type": "cell-based", "details": "single dose of 0.1 μM; in words"}, "[2]": {"tested_on": "retinal endothelial cells", "test": "VEGF/TNF-induced retinal endothelial permeability assay", "assay_type": "cell-based", "details": "dose response; in words"}, "[3]": {"tested_on": "aPKC isoforms (PKCζ, PKCι)", "test": "kinase potency against aPKC isoforms", "details": "without discrimination for PKCζ or PKCι; in words"}, "Akt activation": {"tested_on": "Akt activation", "details": "endothelial cells; cited from earlier work"}, "Erk activation": {"tested_on": "Erk activation", "details": "endothelial cells; cited from earlier work"}, "AGC kinases": {"tested_on": "AGC kinases", "details": "panel of 20 AGC kinases; cited from earlier work"}},
  "note": "Entries after “also recorded” stand apart in the source; their conditions may differ.",
  "data": [
    {"smiles": "CCOC(=O)c1c(-c2ccc(N)cc2)csc1N", "note": "[compound 29]", "values": [
      {"measurement": "inhibition of TNF-induced NFκB activity", "setting": "[1]", "value": "significant inhibition"},
      {"measurement": "efficacy in preventing TNF/VEGF-induced endothelial permeability", "setting": "[2]", "value": "good efficacy"}
    ]},
    {"smiles": "CCOC(=O)c1c(-c2ccc3c(c2)OCO3)csc1N", "note": "[compound 32]", "values": [
      {"measurement": "inhibition of TNF-induced NFκB activity", "setting": "[1]", "value": "significant inhibition"},
      {"measurement": "efficacy in preventing TNF/VEGF-induced endothelial permeability", "setting": "[2]", "value": "good efficacy"},
      {"measurement": "potency against aPKC isoforms", "setting": "[3]", "value": "low micromolar to high nanomolar potency"}
    ]},
    {"smiles": "COc1ccc(-c2csc(N)c2C(=O)OC(C)C)cc1OC", "note": "[compound 6]", "values": [
      {"measurement": "efficacy in preventing TNF/VEGF-induced endothelial permeability", "setting": "[2]", "value": "good efficacy"},
      {"measurement": "block of VEGF-induced Akt activation", "setting": "Akt activation", "value": "does not block"},
      {"measurement": "block of VEGF-induced Erk activation", "setting": "Erk activation", "value": "does not block"},
      {"measurement": "specificity towards aPKC isoforms versus AGC family members", "setting": "AGC kinases", "value": "high degree of specificity; also recorded: excellent selectivity"},
      {"measurement": "potency against aPKC isoforms", "setting": "[3]", "value": "low micromolar to high nanomolar potency"}
    ]},
    {"smiles": "CCOC(=O)c1c(-c2ccc(N(C)C)cc2)csc1N", "note": "[compound 30]", "values": [
      {"measurement": "efficacy in preventing TNF/VEGF-induced endothelial permeability", "setting": "[2]", "value": "good efficacy"},
      {"measurement": "potency against aPKC isoforms", "setting": "[3]", "value": "low micromolar to high nanomolar potency"}
    ]},
    {"smiles": "COc1cccc(COC(=O)c2c(-c3ccc(OC)c(OC)c3)csc2N)c1", "note": "[compound 14]", "values": [
      {"measurement": "inhibition of TNF-induced NFκB activity", "setting": "[1]", "value": "significant inhibition"},
      {"measurement": "potency against aPKC isoforms", "setting": "[3]", "value": "low micromolar to high nanomolar potency"}
    ]},
    {"smiles": "COc1ccc(-c2csc(N)c2C(=O)OCc2ccccc2)cc1OC", "note": "[compound 10]", "values": [
      {"measurement": "inhibition of TNF-induced NFκB activity", "setting": "[1]", "value": "significant inhibition"}
    ]}
  ]
}
